These results are taken from patent US20250074902A1, “FUSED BICYCLIC HETEROARYL AMIDE COMPOUND AS PROTEIN AGGREGATION INHIBITOR” (SHANGHAI JINGXIN BIOMEDICAL CO., LTD., priority 2021, published 2025).

As usually defined, the Kp is the ratio of the level in a tissue or fluid to that in plasma or blood. The term half-life denotes how long it takes for the measured level to halve. A higher half-life goes with slow loss. The inhibition is the relative decrease from the control value, in per cent.

A short description of series [1]: Determination of brain/plasma ratio. The series is classed as in vivo. The conditions noted are these: mouse, male C57BL/6 mice, oral 10 mg/kg, ratio of average drug concentration in brain tissue to plasma. On the procedure:
Male C57BL/6 mice were used as research subjects, and brain perfusion technology was used to investigate the pharmacokinetic characteristics of the compound of the present invention transported through the blood-brain barrier, and the drug concentrations in the blood and brain tissue samples of mice after 0.25 h, 1 h, 4 h and 8 h were detected, and the ratio of the average drug concentrations in brain tissue and plasma was calculated.
Oral administration solution (1.000 mg·ml^−1) of the compound of the present invention was prepared:
Weigh 3.116 mg of the compound and place it in an EP tube, then add DMS 0.156 mL, Solutol 0.312 mL and ultrapure water 2.648 mL (the volume ratio of the three is 5:10:85, v:v:v), vortex ultrasound to fully dissolve it, and the final actual concentration is 1.000 mg·mL-1 of the clear administration solution.
C57BL/6 mice (male), purchased from Sibeifu (Beijing) Biotechnology Co., Ltd., experimental animal production license number: SCXK (Beijing) 2019-0010.
Fasting: Overnight fasting, no water withdrawal, feed provided 4 hours after medication.
Select qualified healthy C57BL/6 mice, 3 per group. After oral administration (10 mg/kg), about 150 μL of whole blood was collected from the orbital venous plexus of mice at 0.25 h, 1 h, 4 h and 8 h after medication and placed in a centrifuge tube containing EDTA-K2 anticoagulant. After administration, the mice were anesthetized about 1 minute before the scheduled time point, and brain perfusion was performed at 0.25 h, 1 h, 4 h and 8 h after administration. After perfusion, the mouse brain tissue samples were dissected with ophthalmic scissors and ophthalmic forceps, and the remaining blood on the tissue surface was immediately rinsed with ultrapure water within 5 min, wiped dry, weighed, and 4 times the volume of acetonitrile-water solution (10:90, v:v) was added and homogenized, and then the homogenate was placed in a −20° C. refrigerator for testing. The collected samples were placed in an ice bath during the entire experimental operation.
According to the time points specified in the above experimental protocol, about 150 μL of whole blood was collected from the orbital venous plexus of C57BL/6 mice after administration and placed in a 1.5 mL centrifuge tube containing EDTAN-K2. The collected whole blood was centrifuged at 2000 g, 4° C. for 10 min, and all plasma was divided and placed in another clean centrifuge tube, and then placed in a −20° C. refrigerator for testing.
Adjust the peristaltic pump device to ensure that it works normally, the liquid flows out smoothly and stably, and there is no air in the flow path. Anesthetize the mice after administration with a mixed anesthetic of 70% CO2 and 30% O2, After the animal is fully anesthetized, quickly open the chest cavity with surgical scissors to expose the heart. […] Turn on the peristaltic pump switch and perfuse for 2-5 minutes. The perfusion fluid is 100 U/1000 mL heparin sodium saline. After the perfusion is completed, use ophthalmic scissors and ophthalmic forceps to dissect the mouse brain tissue sample, immediately rinse the remaining blood on the tissue surface with ultrapure water within 5 minutes, wipe dry, weigh, add 4 times the volume of acetonitrile-water solution (10:90, v:v) and homogenize, and then place the homogenate in a −20° C. refrigerator for testing.
Calculate the ratio of the average drug concentration in brain tissue to that in plasma, i.e., the brain/plasma ratio.

A short description of series [2]: Determination of half-life in C57BL/6 mice. The series is classed as in vivo. Particulars: mouse, 2 mg/kg; male C57BL/6 mice, intravenous, 2 mpk, plasma. On the procedure: C57BL/6 mice (male) were selected, and the compound of the present invention was intravenously administered at a dose of 2 mpk, About 0.03 mL of whole blood was collected from the mouse orbital venous plexus at 0 h before administration, 0.0833, 0.25, 0.5, 1, 2, 4, 6, 8 and 24 h after administration. The blood was placed in a centrifuge tube containing EDTA-K2 anticoagulant, and placed in crushed ice after collection. Centrifuge at 2000 g and 4° C. for 10 min within 0.5 hours, and 10 μL of plasma was quantitatively divided and placed in another clean centrifuge tube, placed in a −20° C. refrigerator, and the blood drug concentration was determined by LC-MS/MS method.

Series [3] addresses T1, α-synuclein (Homo sapiens, UniProt P37840).
T1 construct: purchased Sino Biological
Briefly: Detection of the ability of compounds to inhibit α-synuclein self-aggregation by HPLC. The series is classed as biochemical. The conditions noted are these: test compound 200 μg/mL, α-synuclein 250 μg/ml, 37° C., 9 days; HPLC peak area of α-synuclein multimers vs model group; read-out: inhibition rate (%). The protocol: The test compound (for poorly soluble compounds, dissolve with an appropriate amount of DMSO first) and fresh α-synuclein monomers (purchased from Sino Biological) were added to pure water to a final protein concentration of 250 μg/ml, and the concentration of the test compound was 200 μg/mL, followed by incubation at 37° C. for 9 days. The peak area of α-synuclein multimers after incubation was detected by HPLC and the inhibition rate was calculated. […] Inhibition rate=(peak area of model group−peak area of example group)/peak area of model group×100%.

`CCCCC(Cc1c[nH]c2ccccc12)NC(=O)c1cc2ccc(N3CCN(C)CC3)cc2s1` (racemic) [Example 1, N-(1-(1H-indol-3-yl)hexane-2-yl)-6-(4-methylpiperazin-1-yl)benzo[b]thiophene-2-carboxamide]: in series [1], the concentration ratio (Kp) at 4 h turned out to be 1.53. This compound had a half-life in series [2] of 2.21 h. Moreover, the inhibition at 200 µg/mL in series [3] was found to be 98.3%.

Consider `CCCCC(Cc1c[nH]c2ccccc12)NC(=O)c1cnc(N2CCN(C)CC2)s1` (stereo not shown) [Comparative Example 1, reference compound], for which, in series [1], the concentration ratio (Kp) at 4 h was found to be 0.35. In series [2], the half-life is 0.39 h.

For the compound `CCCCC(Cc1c[nH]c2ccccc12)NC(=O)c1cc2ccc(N3CCN(C4CC4)CC3)cc2s1` (stereo not shown) [Example 3, N-(1-(1H-indol-3-yl)hexane-2-yl)-6-(4-cyclopropylpiperazin-1-yl) benzo[b]-thiophene-2-carboxamide], the Kp at 4 h in series [1] amounted to 0.38. The half-life in series [2] is 1.46 h. Moreover, in series [3], the inhibition at 200 µg/mL amounted to 95.3%.

`CCCCC(Cc1c[nH]c2ccccc12)NC(=O)c1cc2ccc(N3CCN(C)CC3)cc2n1C` (stereo not shown) [Example 36, N-[1-(1H-indol-3-yl)hexyl-2-yl]-1-methyl-6-(4-methylpiperazin-1-yl)-1H-indole-2-carboxamide]: the inhibition at 200 µg/mL in series [3] came to 85.3%.

As to `CC/C=C/C(Cc1c[nH]c2ccccc12)NC(=O)c1cc2ccc(N3CCN(C)CC3)cc2s1` (stereo not shown) [Example 37, (E)-N-(1-(1H-indol-3-yl)-3-hexene-2-yl)-6-(4-methylpiperazin-1-yl) benzo-[b]thiophene-2-carboxamide], the inhibition at 200 µg/mL in series [3] is 86.7%.

Consider `CN(C)CCC(Cc1c[nH]c2ccccc12)NC(=O)c1cc2ccc(N3CCN(C)CC3)cc2s1` (stereo not shown) [Example 38], for which the inhibition at 200 µg/mL in series [3] came out at 78.3%.

As for `CCOCC(Cc1c[nH]c2ccccc12)NC(=O)c1cc2ccc(N3CCN(C)CC3)cc2s1` (stereo not shown) [Example 39, N-(1-ethoxy-3-(1H-indol-3-yl)propane-2-yl)-6-(4-methylpiperazin-1-yl) benzo[b]-thiophene-2-carboxamide], in series [3], the inhibition at 200 µg/mL came out at 92.6%.

As to `CC(C)/C=C/C(Cc1c[nH]c2ccccc12)NC(=O)c1cc2ccc(N3CCN(C)CC3)cc2s1` (stereo not shown) [Example 40, (E)-N-(1-(1H-indol-3-yl)-S-methyl-3-hexene-2-yl)-6-(4-methylpiperazin-yl) benzo[b]-thiophene-2-carboxamide], in series [3], the inhibition at 200 µg/mL is 76.8%.

On to `CCOCCC(Cc1c[nH]c2ccccc12)NC(=O)c1cc2ccc(N3CCN(C)CC3)cc2s1` (stereo not shown) [Example 41, N-(4-ethoxy-1-(1H-indol-3-yl)butane-2-yl)-6-(4-methylpiperazin-1-yl) benzol[b]-thiophene-2-carboxamide], for which, in series [3], the inhibition at 200 µg/mL stood at 82.5%.

Consider `CCCC[C@@H](Cc1c[nH]c2ccccc12)NC(=O)c1cc2ccc(N3CCN(C)CC3)cc2s1` [Example 42, (S)—N-(1-(1H-indol-3-yl)hexane-2-yl)-6-(4-methylpiperazin-1-yl) benzo[b]thiophene-2-carboxamide], for which, in series [1], the partition ratio (Kp) at 4 h turned out to be 2.05. In series [2], this compound showed a half-life of 1.17 h. In series [3], the inhibition at 200 µg/mL came to 97.2%.

Regarding `CCCC[C@H](Cc1c[nH]c2ccccc12)NC(=O)c1cc2ccc(N3CCN(C)CC3)cc2s1` [Example 43, (R)—N-(1-(1H-indol-3-yl)hexane-2-yl)-6-(4-methylpiperazin-1-yl) benzo[b]thiophene-2-carboxamide], the Kp at 4 h in series [1] turned out to be 1.7. Besides, in series [2], the half-life was 1.32 h. In addition, in series [3], the inhibition at 200 µg/mL was determined as 98.6%.

For `CCCCC(Cc1c[nH]c2ccccc12)NC(=O)c1cc2ccc(N3CCN(S(=O)(=O)C4CC4)CC3)cc2s1` (stereo not shown) [Example 44, 6-[4-(Cyclopropanesulfonyl)piperazine-1-yl]-N-[1-(1H-indol-3-yl)hexane-2-yl]-1-benzothiophene-2-carboxamide], in series [3], the inhibition at 200 µg/mL was determined as 89.7%.

`CCCCC(Cc1c[nH]c2ccccc12)NC(=O)c1cc2ccc(N3CCN(S(C)(=O)=O)CC3)cc2s1` (stereo not shown) [Example 45, N-[1-(1H-indol-3-yl)hexane-2-yl]-6-(4-methylsulfonylpiperazine-1-yl)-benzothiophene-2-carboxamide]: the inhibition at 200 µg/mL in series [3] amounted to 82.3%.

For the compound `CCCCC(Cc1c[nH]c2ccccc12)NC(=O)c1cc2ccc(N3CCN(C)C(=O)C3)cc2s1` (stereo not shown) [Example 46, N-[1-(1H-indol-3-yl)hexane-2-yl]-6-(4-methyl-3-oxopiperazin-1-yl)-benzothiophene-2-carboxamide], the inhibition at 200 µg/mL in series [3] came out at 78.9%.

As for `CCCCC(Cc1c[nH]c2ccccc12)NC(=O)c1cc2ccc(N3CCN(C)CC3=O)cc2s1` (stereo not shown) [Example 47, N-[1-(1H-indol-3-yl)hexane-2-yl]-6-(4-methyl-2-oxypiperazin-1-yl)-1-benzothiophene-2-carboxamide], the inhibition at 200 µg/mL in series [3] was 73.5%.

With `CCCCC(Cc1c[nH]c2ccccc12)NC(=O)c1cc2ccc(N3CCC(C)(O)CC3)cc2s1` (stereo not shown) [Example 48, N-(1-(1H-indol-3-yl)hexane-2-yl)-6-(4-hydroxy-4-methylpiperidin-1-yl) benzo[b]-thiophene-2-carboxamide], in series [3], the inhibition at 200 µg/mL was 96.5%.

For `CCCCC(Cc1c[nH]c2ccccc12)NC(=O)c1cc2ccc(N3CC(C)(O)C3)cc2s1` (stereo not shown) [Example 49, N-(1-(1H-indol-3-yl)hexane-2-yl)-6-(3-hydroxy-3-methylazetidine-1-yl) benzo[b]-thiophene-2-carboxamide], the inhibition at 200 µg/mL in series [3] came out at 92.9%.

Take `CCCCC(Cc1c[nH]c2ccccc12)NC(=O)c1cc2ccc(N3CC4(C3)CC(C)(O)C4)cc2s1` (stereo not shown) [Example 50, N-(1-(1H-indol-3-yl)hexane-2-yl)-6-(6-hydroxy-6-methyl-2-azaspiro [3.3]heptane-2-yl) benzo[b]thiophene-2-carboxamide]: the inhibition at 200 µg/mL in series [3] was 95.7%.

As to `CCCCC(Cc1c[nH]c2ccccc12)NC(=O)c1cc2ccc(N3CCC(C)(O)C3)cc2s1` (stereo not shown) [Example 51, N-(1-(1H-indol-3-yl)hexane-2-yl)-6-(3-hydroxy-3-methylpyrrolidin-1-yl) benzo[b]-thiophene-2-carboxamide], the inhibition at 200 µg/mL in series [3] turned out to be 90.3%.
